Among the test systems are NCI/ADR-RES; UACC-257; CCRF-CEM; RXF 393; NCI-H226; HL-60; UO-31; KM12; HOP-62; OVCAR-5; Malme-3M; UACC-62; A549; DU-145; MOLT-4; SW-620; CAKI-1; LOX IMVI; M14; MDA-MB-231.
Holding throughout (assay): DTP human tumour cell line panel, 48 h

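Cells were grown in 96-well plates and exposed to each compound for 48 hours at five concentrations; endpoints were interpolated linearly between bracketing concentrations, or set to the highest concentration if not reached. GI50 marks 50% less growth.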 Active and inactive are the calls of the source. Cut-off read from the data, not from the text of the source: active = GI50 up to about 1.1 µM and inactive = higher.

In the case of `CCOc1cc2c(cc1O)/C(=N\N)C[C@@H]1[C@@H]2CC[C@]2(C)[C@@H](O)CC[C@@H]12`, the GI50 – broadly, the concentration that inhibits growth by half – in the test on NCI/ADR-RES is 3.86 µM (inactive); in the test on UACC-257, 7.43 µM (inactive); with CCRF-CEM it was 2.38 µM (inactive); with RXF 393, 5.75 µM (inactive); in the test on NCI-H226, 4.76 µM (inactive); with HL-60, 0.337 µM (active). In addition, the GI50 in the test with UO-31 was 3.96 µM (inactive); in the test on KM12, 4.71 µM (inactive); in the test with HOP-62, 3.66 µM (inactive); with OVCAR-5, 36.4 µM (inactive); in the test with Malme-3M, 1.54 µM (inactive); in the test on UACC-62, 0.879 µM (active). Moreover, the GI50 in the test on A549 is 8.75 µM (inactive); in the test with DU-145, 8.73 µM (inactive); in the test on MOLT-4, 4.27 µM (inactive); in the test with SW-620, 1.85 µM (inactive); in the test with CAKI-1, 5.43 µM (inactive); in the test with LOX IMVI it was 4.12 µM (inactive). The values for the GI50 with M14 and in the test on MDA-MB-231 were 4.8 µM (inactive) and 5.62 µM (inactive), respectively.
As to `CCOc1c(OC)cc(CNNc2nccs2)cc1OC`, the GI50 in the test on NCI/ADR-RES was 70.6 µM (inactive); in the test on UACC-257, 20.1 µM (inactive); in the test with CCRF-CEM, > 100 µM (inactive); with RXF 393 it was > 100 µM (inactive); with NCI-H226, > 100 µM (inactive); in the test on HL-60 it was 13.4 µM (inactive). For the same compound, the GI50 with UO-31 is 71.9 µM (inactive); with KM12, > 100 µM (inactive); in the test with HOP-62, > 100 µM (inactive); in the test with OVCAR-5, 4.57 µM (inactive); with Malme-3M, 82.2 µM (inactive); in the test on A549, 60 µM (inactive). The GI50 with DU-145 is 15 µM (inactive); in the test with MOLT-4, 28.6 µM (inactive); in the test on SW-620, > 100 µM (inactive); with CAKI-1, > 100 µM (inactive); in the test with LOX IMVI, 47.2 µM (inactive); in the test with M14 it was 42.1 µM (inactive). The GI50 in the test on MDA-MB-231 was 94.2 µM (inactive).
In the case of `COc1cc(/C=C2\C[C@H]3[C@@H]4CC=C5C[C@@H](O)CC[C@]5(C)[C@H]4CC[C@]3(C)[C@H]2O)cc(OC)c1OC`, the GI50 in the test with NCI/ADR-RES is 12.9 µM (inactive); with UACC-257, 14.8 µM (inactive); with RXF 393, 5.58 µM (inactive); with NCI-H226, 11 µM (inactive); in the test on HL-60, 4.91 µM (inactive); in the test on UO-31, 13 µM (inactive). Also, the GI50 in the test with KM12 was 10.1 µM (inactive); with HOP-62, 10.8 µM (inactive); in the test on OVCAR-5, 26.3 µM (inactive); in the test with Malme-3M it was 33.1 µM (inactive); in the test with UACC-62 it was 10.3 µM (inactive); with A549 it was 9.79 µM (inactive). For the same compound, the GI50 with DU-145 is 18.3 µM (inactive); with MOLT-4, 5.5 µM (inactive); with SW-620, 26.2 µM (inactive); in the test with CAKI-1 it was 20.2 µM (inactive); with LOX IMVI, 8.53 µM (inactive); with M14, 20.7 µM (inactive). The GI50 in the test with MDA-MB-231 is 11.4 µM (inactive).
As for `CN(Cc1cnc2c(N)nc(N)nc2n1)c1ccc(Cl)cc1`, the GI50 in the test with NCI/ADR-RES is 16.2 µM (inactive); in the test on UACC-257, 78.5 µM (inactive); in the test on CCRF-CEM, > 100 µM (inactive); in the test on RXF 393, 17 µM (inactive); in the test on NCI-H226 it was 1.91 µM (inactive); in the test on HL-60, > 100 µM (inactive). In addition, the GI50 in the test with UO-31 was 47.1 µM (inactive); in the test with KM12, > 100 µM (inactive); with HOP-62, 39.3 µM (inactive); in the test with OVCAR-5, > 100 µM (inactive); in the test with Malme-3M, > 100 µM (inactive); in the test with UACC-62 it was 24.4 µM (inactive). Also, the GI50 with DU-145 was > 100 µM (inactive); in the test on MOLT-4 it was > 100 µM (inactive); with SW-620, > 100 µM (inactive); with CAKI-1, > 100 µM (inactive); in the test with M14 it was 73.8 µM (inactive); in the test on MDA-MB-231 it was > 100 µM (inactive).
For `O=C1c2ccccc2-c2ccc(O)cc21`, the GI50 in the test with NCI/ADR-RES is 31.8 µM (inactive); in the test with UACC-257, 19.6 µM (inactive); in the test with RXF 393, 10.4 µM (inactive); with NCI-H226, 26.3 µM (inactive); in the test on HL-60, 23.2 µM (inactive); with UO-31, 17.2 µM (inactive). Besides, the GI50 with KM12 is 16.8 µM (inactive); with HOP-62, 36.4 µM (inactive); in the test with OVCAR-5, 26.7 µM (inactive); with Malme-3M, 23.4 µM (inactive); in the test on UACC-62, 15.3 µM (inactive); in the test on A549 it was 25.9 µM (inactive). For the same compound, the GI50 in the test on DU-145 was 20.1 µM (inactive); in the test with MOLT-4, 16.1 µM (inactive); in the test on SW-620, 42.3 µM (inactive); in the test with CAKI-1, 14.8 µM (inactive); with LOX IMVI, 40.1 µM (inactive); in the test on M14, 26.1 µM (inactive). Besides, in the test with MDA-MB-231, the GI50 was 16.9 µM (inactive).
For the compound `CC(C)(C)c1cc(S(=O)(=O)O)c2oc(-c3ccccc3)cc(=O)c2c1`, the GI50 in the test with NCI/ADR-RES, with UACC-257, with CCRF-CEM, in the test on RXF 393, in the test on NCI-H226 and in the test with HL-60 was > 100 µM (inactive) throughout. The GI50 in the test on UO-31, in the test on KM12, in the test with HOP-62, in the test with Malme-3M, with A549 and in the test with DU-145 was > 100 µM (inactive) throughout. Also, the GI50 in the test with MOLT-4, in the test with SW-620, in the test with CAKI-1, in the test on LOX IMVI and in the test on MDA-MB-231 was > 100 µM (inactive) in each case.
As for `COc1cc2nc(-c3cccs3)[nH]c(=O)c2cc1OC`, the GI50 in the test on NCI/ADR-RES was > 100 µM (inactive); with UACC-257, > 100 µM (inactive); with CCRF-CEM, 36.6 µM (inactive); in the test on RXF 393, > 100 µM (inactive); with NCI-H226 it was > 100 µM (inactive); in the test on HL-60, 35.4 µM (inactive). Also, the GI50 with UO-31 is > 100 µM (inactive); in the test with KM12 it was > 100 µM (inactive); with HOP-62, > 100 µM (inactive); in the test with OVCAR-5 it was 28.6 µM (inactive); in the test with Malme-3M it was > 100 µM (inactive); with UACC-62, > 100 µM (inactive). In addition, the GI50 with A549, with DU-145, with SW-620, with CAKI-1, with LOX IMVI and in the test with M14 was > 100 µM (inactive) in each case. Moreover, the GI50 in the test with MDA-MB-231 is 23.2 µM (inactive).
Take `Nc1ncnc2c1nnn2C1C=CC(CP(=O)(O)O)C1` (centres undefined): the GI50 in the test on NCI/ADR-RES, in the test with UACC-257, in the test on RXF 393, with NCI-H226, in the test on HL-60 and in the test on UO-31 was > 100 µM (inactive) each time. The GI50 with KM12, in the test on HOP-62, with OVCAR-5, in the test with Malme-3M, with UACC-62 and in the test with A549 was > 100 µM (inactive) in each case. For the same compound, the GI50 in the test on DU-145, in the test with MOLT-4, in the test with SW-620, in the test with LOX IMVI, in the test with M14 and in the test on MDA-MB-231 was > 100 µM (inactive) throughout.
As for `Cc1cccc(CC(Cc2c(C)cccc2C(=O)O)C(=O)O)c1` (centres undefined), the GI50 in the test on NCI/ADR-RES, in the test on UACC-257, in the test with CCRF-CEM, in the test with RXF 393, in the test on NCI-H226 and in the test with HL-60 was > 100 µM (inactive) each time. The GI50 in the test on UO-31 was > 100 µM (inactive); with KM12, > 100 µM (inactive); with HOP-62 it was > 100 µM (inactive); in the test with OVCAR-5, > 100 µM (inactive); in the test with Malme-3M, > 100 µM (inactive); in the test with UACC-62, 0.0875 µM (active). Further, the GI50 in the test with A549, with DU-145, in the test on MOLT-4, with SW-620, in the test on CAKI-1 and with LOX IMVI was > 100 µM (inactive) in each case. In addition, the GI50 in the test with M14 and with MDA-MB-231 was > 100 µM (inactive) in each case.
`CN(C)CCCNc1ccc2nnn3c4ccc([N+](=O)[O-])cc4c(=O)c1c23`: the GI50 with NCI/ADR-RES is 0.685 µM (active); with UACC-257 it was 3.4 µM (inactive); in the test on CCRF-CEM, 0.785 µM (active); in the test with RXF 393 it was 1.12 µM (active); in the test on NCI-H226, 0.403 µM (active); in the test on HL-60 it was 1.83 µM (inactive). Further, the GI50 was 1.28 µM (inactive) in the test with UO-31; 0.986 µM (active) in the test on KM12; 0.817 µM (active) with HOP-62; 1.99 µM (inactive) in the test with OVCAR-5; 3.56 µM (inactive) in the test with Malme-3M; 4.33 µM (inactive) in the test with UACC-62. Also, the GI50 in the test with A549 was 0.721 µM (active); in the test with DU-145, 1.71 µM (inactive); in the test on MOLT-4, 0.21 µM (active); with SW-620 it was 0.45 µM (active); with CAKI-1 it was 1.73 µM (inactive); in the test with LOX IMVI it was 0.641 µM (active). The results for the GI50 with M14 and with MDA-MB-231 were 2.14 µM (inactive) and 0.274 µM (active), respectively.

Values taken from ChEMBL document CHEMBL1201862, “PubChem BioAssay data set” (2004).
